Results from BigSolDB 2.1.

Structure (SMILES): Cl.N=C(N)N
- solubility (mole fraction) (in 2-butoxyethanol, 278.15 K): 0.104
- solubility (mole fraction) (in 2-butoxyethanol, 283.15 K): 0.111
- solubility (mole fraction) (in 2-butoxyethanol, 288.15 K): 0.126
- solubility (mole fraction) (in 2-butoxyethanol, 293.15 K): 0.138
- solubility (mole fraction) (in 2-butoxyethanol, 298.15 K): 0.153
- solubility (mole fraction) (in 2-butoxyethanol, 303.15 K): 0.169
- solubility (mole fraction) (in 2-butoxyethanol, 308.15 K): 0.185
- solubility (mole fraction) (in 2-butoxyethanol, 313.15 K): 0.201
- solubility (mole fraction) (in 2-butoxyethanol, 318.15 K): 0.216
- solubility (mole fraction) (in 2-butoxyethanol, 323.15 K): 0.236
- solubility (mole fraction) (in 2-ethoxyethanol, 278.15 K): 0.252
- solubility (mole fraction) (in 2-ethoxyethanol, 283.15 K): 0.263
- solubility (mole fraction) (in 2-ethoxyethanol, 288.15 K): 0.275
- solubility (mole fraction) (in 2-ethoxyethanol, 293.15 K): 0.284
- solubility (mole fraction) (in 2-ethoxyethanol, 298.15 K): 0.296
- solubility (mole fraction) (in 2-ethoxyethanol, 303.15 K): 0.308
- solubility (mole fraction) (in 2-ethoxyethanol, 308.15 K): 0.321
- solubility (mole fraction) (in 2-ethoxyethanol, 313.15 K): 0.334
- solubility (mole fraction) (in 2-ethoxyethanol, 318.15 K): 0.349
- solubility (mole fraction) (in 2-ethoxyethanol, 323.15 K): 0.362
- solubility (mole fraction) (in 2-methoxyethanol, 278.15 K): 0.293
- solubility (mole fraction) (in 2-methoxyethanol, 283.15 K): 0.302
- solubility (mole fraction) (in 2-methoxyethanol, 288.15 K): 0.312
- solubility (mole fraction) (in 2-methoxyethanol, 293.15 K): 0.323
- solubility (mole fraction) (in 2-methoxyethanol, 298.15 K): 0.333
- solubility (mole fraction) (in 2-methoxyethanol, 303.15 K): 0.345
- solubility (mole fraction) (in 2-methoxyethanol, 308.15 K): 0.355
- solubility (mole fraction) (in 2-methoxyethanol, 313.15 K): 0.368
- solubility (mole fraction) (in 2-methoxyethanol, 318.15 K): 0.381
- solubility (mole fraction) (in 2-methoxyethanol, 323.15 K): 0.394
- solubility (mole fraction) (in 2-propoxyethanol, 278.15 K): 0.158
- solubility (mole fraction) (in 2-propoxyethanol, 283.15 K): 0.172
- solubility (mole fraction) (in 2-propoxyethanol, 288.15 K): 0.185
- solubility (mole fraction) (in 2-propoxyethanol, 293.15 K): 0.2
- solubility (mole fraction) (in 2-propoxyethanol, 298.15 K): 0.216
- solubility (mole fraction) (in 2-propoxyethanol, 303.15 K): 0.232
- solubility (mole fraction) (in 2-propoxyethanol, 308.15 K): 0.247
- solubility (mole fraction) (in 2-propoxyethanol, 313.15 K): 0.263
- solubility (mole fraction) (in 2-propoxyethanol, 318.15 K): 0.28
- solubility (mole fraction) (in 2-propoxyethanol, 323.15 K): 0.298
- solubility (mole fraction) (in DMAc, 278.15 K): 0.265
- solubility (mole fraction) (in DMAc, 283.15 K): 0.283
- solubility (mole fraction) (in DMAc, 288.15 K): 0.302
- solubility (mole fraction) (in DMAc, 293.15 K): 0.321
- solubility (mole fraction) (in DMAc, 298.15 K): 0.34
- solubility (mole fraction) (in DMAc, 303.15 K): 0.358
- solubility (mole fraction) (in DMAc, 308.15 K): 0.376
- solubility (mole fraction) (in DMAc, 313.15 K): 0.394
- solubility (mole fraction) (in DMAc, 318.15 K): 0.415
- solubility (mole fraction) (in DMAc, 323.15 K): 0.434
- solubility (mole fraction) (in DMF, 278.15 K): 0.326
- solubility (mole fraction) (in DMF, 283.15 K): 0.345
- solubility (mole fraction) (in DMF, 288.15 K): 0.368
- solubility (mole fraction) (in DMF, 293.15 K): 0.384
- solubility (mole fraction) (in DMF, 298.15 K): 0.402
- solubility (mole fraction) (in DMF, 303.15 K): 0.42
- solubility (mole fraction) (in DMF, 308.15 K): 0.441
- solubility (mole fraction) (in DMF, 313.15 K): 0.456
- solubility (mole fraction) (in DMF, 318.15 K): 0.476
- solubility (mole fraction) (in DMF, 323.15 K): 0.495
- solubility (mole fraction) (in NMP, 278.15 K): 0.116
- solubility (mole fraction) (in NMP, 283.15 K): 0.128
- solubility (mole fraction) (in NMP, 288.15 K): 0.142
- solubility (mole fraction) (in NMP, 293.15 K): 0.154
- solubility (mole fraction) (in NMP, 298.15 K): 0.17
- solubility (mole fraction) (in NMP, 303.15 K): 0.185
- solubility (mole fraction) (in NMP, 308.15 K): 0.201
- solubility (mole fraction) (in NMP, 313.15 K): 0.216
- solubility (mole fraction) (in NMP, 318.15 K): 0.236
- solubility (mole fraction) (in NMP, 323.15 K): 0.253
- solubility (mole fraction) (in ethanol, 278.15 K): 0.0832
- solubility (mole fraction) (in ethanol, 283.15 K): 0.0916
- solubility (mole fraction) (in ethanol, 288.15 K): 0.1
- solubility (mole fraction) (in ethanol, 293.15 K): 0.108
- solubility (mole fraction) (in ethanol, 298.15 K): 0.117
- solubility (mole fraction) (in ethanol, 303.15 K): 0.128
- solubility (mole fraction) (in ethanol, 308.15 K): 0.139
- solubility (mole fraction) (in ethanol, 313.15 K): 0.152
- solubility (mole fraction) (in ethanol, 318.15 K): 0.163
- solubility (mole fraction) (in ethanol, 323.15 K): 0.172
- solubility (mole fraction) (in isopropanol, 278.15 K): 0.0552
- solubility (mole fraction) (in isopropanol, 283.15 K): 0.0623
- solubility (mole fraction) (in isopropanol, 288.15 K): 0.0699
- solubility (mole fraction) (in isopropanol, 293.15 K): 0.0803
- solubility (mole fraction) (in isopropanol, 298.15 K): 0.0886
- solubility (mole fraction) (in isopropanol, 303.15 K): 0.0991
- solubility (mole fraction) (in isopropanol, 308.15 K): 0.11
- solubility (mole fraction) (in isopropanol, 313.15 K): 0.122
- solubility (mole fraction) (in isopropanol, 318.15 K): 0.135
- solubility (mole fraction) (in isopropanol, 323.15 K): 0.149
- solubility (mole fraction) (in methanol, 278.15 K): 0.156
- solubility (mole fraction) (in methanol, 283.15 K): 0.169
- solubility (mole fraction) (in methanol, 288.15 K): 0.179
- solubility (mole fraction) (in methanol, 293.15 K): 0.191
- solubility (mole fraction) (in methanol, 298.15 K): 0.202
- solubility (mole fraction) (in methanol, 303.15 K): 0.214
- solubility (mole fraction) (in methanol, 308.15 K): 0.227
- solubility (mole fraction) (in methanol, 313.15 K): 0.239
- solubility (mole fraction) (in methanol, 318.15 K): 0.253
- solubility (mole fraction) (in methanol, 323.15 K): 0.265
- solubility (mole fraction) (in n-propanol, 278.15 K): 0.0373
- solubility (mole fraction) (in n-propanol, 283.15 K): 0.0447
- solubility (mole fraction) (in n-propanol, 288.15 K): 0.0493
- solubility (mole fraction) (in n-propanol, 293.15 K): 0.0571
- solubility (mole fraction) (in n-propanol, 298.15 K): 0.066
- solubility (mole fraction) (in n-propanol, 303.15 K): 0.0733
- solubility (mole fraction) (in n-propanol, 308.15 K): 0.083
- solubility (mole fraction) (in n-propanol, 313.15 K): 0.0939
- solubility (mole fraction) (in n-propanol, 318.15 K): 0.103
- solubility (mole fraction) (in n-propanol, 323.15 K): 0.115
